Experimental findings from PMC10132233 (Journal of Enzyme Inhibition and Medicinal Chemistry, 2023) are described below.

pIC50: −log10 of the molar value.

The target of assay [1] is T1, vascular endothelial growth factor receptor 2 (VEGFR2) (Homo sapiens, UniProt P35968).
T1 construct: purchased Reaction Biology Co. (Malvern, PA)
The experiment in a line: Small kinase panel, VEGFR2. Type of assay: biochemical. The following applies: read-out: % kinase inhibition (relative to DMSO control) VEGFR2. The procedure: Enzyme inhibitory assays were carried out as described in our previous reports in the literature. […] The HotSpot assay platform includes specific kinase/substrate pairs and required cofactors. The base reaction buffer consisted of 20 mM Hepes (pH 7.5), 10 mM MgCl2, 1 mM EGTA, 0.02% Brij35, 0.02 mg/mL BSA, 0.1 mM Na3VO4, 2 mM DTT, and 1% DMSO. The tested compounds were dissolved in 100% DMSO to a specific concentration, and serial dilution was conducted. The reaction mixture containing the tested compound and 33P-ATP was incubated at room temperature for 2 h, and radioactivity was detected using the filter-binding method.

The test system of assay [2] is PC3 prostate carcinoma cell line. The experiment in a line: MTT cytotoxicity assay, PC3. The format is cell-based. The conditions noted are these: Homo sapiens, 24 h. An excerpt:
(§1) Accordingly, we aimed to investigate the cytotoxic potential of this new series against prostate carcinoma cell lines. […] The potent nanomolar cell-based activity of this series of compounds over the tested prostate carcinoma cell line could be attributed to other possible targets in addition to EGFR and HER2 receptors. The presence of the 2-nitroimidazole moiety in the chemical structure of compounds 9a–h could develop possible covalent bonds between the nitroimidazole moiety and some cellular proteins.
(§2) Prostate cancer cell lines (PC3 and 22RV1) of American Type Culture Collection (ATCC) were obtained from Korean Cell Center (KCL). PC3 and 22RV1 cell lines were cultured in Roswell Park Memorial Institute Medium (RPMI) 1640 and Dulbecco’s modified Eagle’s medium (DMEM) (GenDepot, Barker, TX) supplemented with 1% penicillin–streptomycin and 10% foetal bovine serum (FBS). The cells were maintained at 37 °C in a 5% CO2 with a 95% humid atmosphere.
(§3) To further analyse the intracellular cytotoxicity effect of the as-synthesised compounds, MTT assay was performed. Moreover, the experiments were divided into subcategories. In each group, cancer cells were first seeded in 96-well plates (4 × 10^4 cells per well) and then incubated for 24 h at 37 °C in a 5% CO2-containing atmosphere. Subsequently, the medium from the culture plate was removed, and 100 µL of RPMI media containing different concentrations of compounds (0.01, 0.005, 0.0025, 0.00125, and 0.000625 µM) were then added into the cell lines in each well and incubated for 24 h in a 5% CO2 humidified incubator at 37 °C. Afterwards, MTT solution (150 μL, 1 mg/mL) was added to each well, replacing the media-containing compounds. After 4 h of incubation, the MTT reagent was removed, and 200 μL of DMSO was then added to dissolve the formazan crystals, and colour intensity was measured at a wavelength of 540 nm using a BioTek Synergy H1 instrument (BioTek, Winooski, VT). IC50 was calculated according to the equation of Boltzmann sigmoidal concentration–response curve using Graph Pad Prism 5 (La Jolla, CA).

Assay [3] concerns 22RV1 prostate carcinoma cell line. The experiment in a line: MTT cytotoxicity assay, 22RV1. Type of assay: cell-based. The following applies: Homo sapiens, 24 h.
Source text: as §1, §2, §3

The next assay deals with PC3 cells. Briefly: Apoptosis analysis (Annexin V-PE/DAPI), PC3. Type of assay: cell-based, human. The conditions noted are these: PC3, compound at its IC50, 24 h. The procedure: The control PC3 and 22RV1 cells and compound-treated cells were stained with PE-Annexin V and DAPI for a more appropriate cell death examination, and the cellular fluorescence analysis was then performed using ADAMII LS (Figures 4–6). Apoptosis is a type of programmed cell death that can be detected using Annexin V and the DAPI reagent. On plasma membranes, annexin V binds to […] and DAPI can bind to DNA in cells. The dot plot and image data detect early and late apoptotic cells using these two fluorophores. […] Moreover, compound 9f-treated PC3 cells went through early apoptosis (6.27%), and late apoptosis phase (16.94%) (Figures 4(D) and 6). Likewise, the fluorescence images for 22RV1 (Figure 5) and PC3 (Figure 6) cells complement the dot plot data, as higher fluorescence of DAPI and RF images clearly distinguished compound 9f-treated cells from control. […]
Annexin V conjugated to fluorochromes (PE) retains its high affinity for phosphatidylserine (PS), making it a sensitive probe for flow cytometric analysis of apoptotic cells. […] When apoptosis is measured over time, cells can often be tracked from PE Annexin V and DAPI negative (viable, or no measurable apoptosis), to PE Annexin V positive and DAPI negative (early apoptosis), and finally to PE Annexin V and DAPI positive (end stage apoptosis and death). […]

A further assay has as its target EGFR (Homo sapiens, UniProt P00533). Briefly: HotSpot kinase assay over EGFR (Reaction Biology).
For a further assay, the target named is HER2 (Homo sapiens, UniProt P04626). The experiment in a line: HotSpot kinase assay over HER2 (Reaction Biology).
HER2, sequence (P04626 23-1255): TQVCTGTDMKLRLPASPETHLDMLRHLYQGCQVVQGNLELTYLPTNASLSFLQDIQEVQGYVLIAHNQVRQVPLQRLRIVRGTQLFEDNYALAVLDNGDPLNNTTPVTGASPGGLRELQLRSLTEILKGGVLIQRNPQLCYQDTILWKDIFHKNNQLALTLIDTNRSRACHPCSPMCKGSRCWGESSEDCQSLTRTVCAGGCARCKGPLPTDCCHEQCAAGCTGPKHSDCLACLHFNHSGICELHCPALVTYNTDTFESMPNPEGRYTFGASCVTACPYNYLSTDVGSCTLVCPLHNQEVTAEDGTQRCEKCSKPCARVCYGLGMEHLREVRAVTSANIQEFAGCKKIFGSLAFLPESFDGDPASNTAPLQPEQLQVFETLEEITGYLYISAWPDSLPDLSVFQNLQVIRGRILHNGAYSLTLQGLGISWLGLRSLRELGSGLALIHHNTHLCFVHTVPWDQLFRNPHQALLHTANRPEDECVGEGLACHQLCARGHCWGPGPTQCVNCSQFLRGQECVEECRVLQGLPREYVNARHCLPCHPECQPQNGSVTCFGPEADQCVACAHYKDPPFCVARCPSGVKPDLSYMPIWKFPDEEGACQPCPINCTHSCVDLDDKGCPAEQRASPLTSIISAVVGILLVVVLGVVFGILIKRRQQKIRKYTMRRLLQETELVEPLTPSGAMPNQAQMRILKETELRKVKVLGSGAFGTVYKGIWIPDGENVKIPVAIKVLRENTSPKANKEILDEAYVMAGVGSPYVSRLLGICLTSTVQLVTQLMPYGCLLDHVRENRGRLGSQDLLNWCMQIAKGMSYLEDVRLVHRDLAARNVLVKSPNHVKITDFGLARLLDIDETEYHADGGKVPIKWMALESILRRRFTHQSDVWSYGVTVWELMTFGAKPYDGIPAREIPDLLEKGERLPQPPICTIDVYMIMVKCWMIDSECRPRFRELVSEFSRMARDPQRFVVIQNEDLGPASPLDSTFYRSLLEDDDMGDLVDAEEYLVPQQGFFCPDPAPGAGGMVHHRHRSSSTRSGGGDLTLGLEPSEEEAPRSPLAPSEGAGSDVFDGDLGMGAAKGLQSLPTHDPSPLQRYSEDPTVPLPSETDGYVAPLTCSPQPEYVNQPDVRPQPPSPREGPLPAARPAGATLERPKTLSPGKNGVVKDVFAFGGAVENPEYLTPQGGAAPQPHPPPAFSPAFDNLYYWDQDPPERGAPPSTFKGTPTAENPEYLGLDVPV

EGFR, sequence (P00533 25-1210): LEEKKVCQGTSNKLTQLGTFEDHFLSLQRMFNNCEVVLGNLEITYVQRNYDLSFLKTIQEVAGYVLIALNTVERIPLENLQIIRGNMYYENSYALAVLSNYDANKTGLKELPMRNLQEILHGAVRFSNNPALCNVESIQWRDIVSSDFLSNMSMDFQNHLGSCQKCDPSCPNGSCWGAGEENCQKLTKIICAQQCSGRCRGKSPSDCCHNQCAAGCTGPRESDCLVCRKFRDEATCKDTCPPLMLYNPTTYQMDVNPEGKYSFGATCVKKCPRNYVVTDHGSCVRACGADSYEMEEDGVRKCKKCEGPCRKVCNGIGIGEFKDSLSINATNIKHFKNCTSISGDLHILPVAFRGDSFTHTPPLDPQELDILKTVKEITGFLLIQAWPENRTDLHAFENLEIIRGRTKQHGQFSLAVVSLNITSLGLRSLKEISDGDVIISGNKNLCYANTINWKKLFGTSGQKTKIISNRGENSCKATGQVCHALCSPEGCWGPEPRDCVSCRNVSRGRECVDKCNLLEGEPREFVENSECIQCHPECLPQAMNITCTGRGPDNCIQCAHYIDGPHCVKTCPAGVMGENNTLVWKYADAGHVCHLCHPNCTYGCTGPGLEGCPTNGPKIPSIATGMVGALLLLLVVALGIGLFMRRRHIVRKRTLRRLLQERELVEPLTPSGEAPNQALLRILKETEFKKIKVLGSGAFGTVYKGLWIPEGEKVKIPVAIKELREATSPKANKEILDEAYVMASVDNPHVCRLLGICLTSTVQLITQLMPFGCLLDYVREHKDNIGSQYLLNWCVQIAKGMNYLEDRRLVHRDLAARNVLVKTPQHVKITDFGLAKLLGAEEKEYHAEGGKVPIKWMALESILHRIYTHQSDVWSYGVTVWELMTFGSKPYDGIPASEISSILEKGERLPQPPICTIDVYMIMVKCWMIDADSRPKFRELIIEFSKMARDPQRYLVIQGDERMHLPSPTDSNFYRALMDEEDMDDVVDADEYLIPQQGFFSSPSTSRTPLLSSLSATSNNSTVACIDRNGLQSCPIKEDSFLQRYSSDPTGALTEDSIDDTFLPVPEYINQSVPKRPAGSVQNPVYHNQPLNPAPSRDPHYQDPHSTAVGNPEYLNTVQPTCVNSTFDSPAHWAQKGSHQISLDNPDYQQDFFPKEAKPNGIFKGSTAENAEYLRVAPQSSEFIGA
T1 sequence (P35968 20-1356): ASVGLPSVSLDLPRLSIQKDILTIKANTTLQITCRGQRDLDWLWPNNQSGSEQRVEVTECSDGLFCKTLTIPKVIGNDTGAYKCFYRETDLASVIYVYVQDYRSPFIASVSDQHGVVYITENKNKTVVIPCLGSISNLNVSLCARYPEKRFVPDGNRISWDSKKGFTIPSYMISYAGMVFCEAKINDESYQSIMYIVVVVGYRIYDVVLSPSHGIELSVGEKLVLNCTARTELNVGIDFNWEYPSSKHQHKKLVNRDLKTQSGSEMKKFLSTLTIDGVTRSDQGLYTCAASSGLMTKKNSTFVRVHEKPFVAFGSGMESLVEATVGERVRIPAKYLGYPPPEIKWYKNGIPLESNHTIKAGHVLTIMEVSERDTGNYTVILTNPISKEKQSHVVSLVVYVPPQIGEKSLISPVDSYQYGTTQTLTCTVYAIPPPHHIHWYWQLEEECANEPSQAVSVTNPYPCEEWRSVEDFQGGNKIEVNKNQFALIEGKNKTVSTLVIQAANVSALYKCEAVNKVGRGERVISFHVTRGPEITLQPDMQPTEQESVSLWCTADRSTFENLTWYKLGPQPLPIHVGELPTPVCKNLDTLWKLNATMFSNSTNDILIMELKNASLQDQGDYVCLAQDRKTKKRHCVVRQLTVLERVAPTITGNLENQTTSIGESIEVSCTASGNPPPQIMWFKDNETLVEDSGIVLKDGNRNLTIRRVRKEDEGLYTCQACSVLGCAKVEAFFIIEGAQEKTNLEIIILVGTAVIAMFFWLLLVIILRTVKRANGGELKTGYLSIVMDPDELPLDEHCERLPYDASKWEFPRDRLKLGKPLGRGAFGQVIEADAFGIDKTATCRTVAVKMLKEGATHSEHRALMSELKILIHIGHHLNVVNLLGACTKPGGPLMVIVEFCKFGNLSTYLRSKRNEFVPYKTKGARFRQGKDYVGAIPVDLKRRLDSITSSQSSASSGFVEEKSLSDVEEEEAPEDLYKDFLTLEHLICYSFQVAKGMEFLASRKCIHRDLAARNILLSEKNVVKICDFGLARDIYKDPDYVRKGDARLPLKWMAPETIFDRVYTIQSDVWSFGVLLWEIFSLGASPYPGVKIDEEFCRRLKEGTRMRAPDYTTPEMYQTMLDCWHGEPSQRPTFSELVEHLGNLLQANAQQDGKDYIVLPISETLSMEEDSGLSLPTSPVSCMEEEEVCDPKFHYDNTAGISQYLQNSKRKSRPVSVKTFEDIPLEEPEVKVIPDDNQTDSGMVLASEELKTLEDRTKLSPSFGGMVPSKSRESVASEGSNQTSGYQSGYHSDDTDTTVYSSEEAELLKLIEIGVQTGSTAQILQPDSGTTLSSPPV

Consider `COc1cc2ncnc(Nc3ccc(Oc4cccc(C(F)(F)F)c4)c(Cl)c3)c2cc1OCCCCn1ccnc1[N+](=O)[O-]` [Compound 9f, N-(3-Chloro-4-(3-(trifluoromethyl)phenoxy)phenyl)-7-methoxy-6-(4-(2-nitro-1H-imidazol-1-yl)butoxy)quinazolin-4-amine], for which the inhibition at 10 µM in assay [1] is -4.46%; at EGFR (read-out: % kinase inhibition EGFR), 99.3%; on HER2 (read-out: % kinase inhibition HER2), 98%. In addition, the negative logarithm of the IC50 (pIC50) is 9.00 in assay [2], 8.57 in assay [3], 8.64 on EGFR and 6.63 on HER2. Moreover, in the assay on PC3 cells, the “early apoptosis (E.A)” value was 6.27%. The “late apoptosis (L.A)” value in the assay on PC3 cells was 16.94%. Moreover, the “fold of potency over EGFR compared to TAK-285” value at EGFR (ratio of IC50 values) turned out to be 10 fold. In addition, the “fold of potency over EGFR compared to staurosporine” value on EGFR (ratio of IC50 values) stood at 38 fold.
